{
  "source": "patent US12207654B2",
  "about": "“Bactericidal agent for agricultural or horticultural use, plant disease control method, and product for plant disease control use” (Kureha Corporation, priority 2019, dated 2025)",
  "format_in_all_cases": "cell-based",
  "key": {"[1]": {"tested_on": "Glomerella cingulata", "experiment": "In vitro antimicrobial activity test on PDA plate media (colony diameter)"}, "[2]": {"tested_on": "Gaeumannomyces graminis", "experiment": "In vitro antimicrobial activity test on PDA plate media (colony diameter)", "conditions": "used alone"}, "[3]": {"tested_on": "Alternaria alternata apple pathotype", "experiment": "In vitro antimicrobial activity test on PDA plate media (colony diameter)", "conditions": "used alone"}, "[4]": {"tested_on": "Fusarium graminearum", "experiment": "microbe, parasite or virus in culture"}, "[5]": {"tested_on": "Microdocum nivale", "experiment": "In vitro antimicrobial activity test on PDA plate media (colony diameter)", "conditions": "used alone"}, "[6]": {"tested_on": "Pyrenophora graminea", "experiment": "In vitro antimicrobial activity test on PDA plate media (colony diameter)", "conditions": "used alone"}, "[7]": {"tested_on": "Fusarium fujikuroi", "experiment": "In vitro antimicrobial activity test on PDA plate media (colony diameter)", "conditions": "used alone"}, "[8]": {"tested_on": "Cercospora beticola", "experiment": "In vitro antimicrobial activity test in 96-well microplate (absorbance at 620 nm)", "conditions": "used alone"}, "[9]": {"conditions": "Colletotrichum gloeosporioides, used alone, 0.50 ppm, read-out: Actual fungal growth inhibition rate (%)"}, "[10]": {"conditions": "Fusarium graminearum, read-out: Actual fungal growth inhibition rate (%)"}},
  "note": "Several values for one entry are separate records, joined by “and”; a condition that tells them apart may be missing. Equal entries are not always repeated. Where two headings read alike, the source gives them in different places.",
  "data": [
    {"smiles": "COC(=O)C(O)(Cn1cncn1)c1ccc(Oc2ccc(Cl)cc2)cc1C(F)(F)F", "note": "(centres unmarked) [Azole derivative I-122]", "values": [
      {"measurement": "Actual fungal growth inhibition rate (%)", "setting": "[1]; used alone, 0.01 ppm", "result": 8, "unit": "%"},
      {"measurement": "Actual fungal growth inhibition rate (%)", "setting": "[1]; used alone, 0.03 ppm", "result": 14, "unit": "%"},
      {"measurement": "Actual fungal growth inhibition rate (%)", "setting": "[1]; used alone, 0.13 ppm", "result": 45, "unit": "%"},
      {"measurement": "Actual fungal growth inhibition rate (%)", "setting": "[1]; used alone, 0.50 ppm", "result": 82, "unit": "%"},
      {"measurement": "Actual fungal growth inhibition rate (%)", "setting": "[2]; 0.01 ppm", "result": 0, "unit": "%"},
      {"measurement": "Actual fungal growth inhibition rate (%)", "setting": "[2]; 0.03 ppm", "result": 32, "unit": "%"},
      {"measurement": "Actual fungal growth inhibition rate (%)", "setting": "[2]; 0.13 ppm", "result": "70% and 57%"},
      {"measurement": "Actual fungal growth inhibition rate (%)", "setting": "[2]; 0.31 ppm", "result": 96, "unit": "%"},
      {"measurement": "Actual fungal growth inhibition rate (%)", "setting": "[2]; 0.50 ppm", "result": 97, "unit": "%"},
      {"measurement": "Actual fungal growth inhibition rate (%)", "setting": "[2]; 1.25 ppm", "result": 96, "unit": "%"},
      {"measurement": "Actual fungal growth inhibition rate (%)", "setting": "[3]; 0.13 ppm", "result": 0, "unit": "%"},
      {"measurement": "Actual fungal growth inhibition rate (%)", "setting": "[3]; 0.50 ppm", "result": 5, "unit": "%"},
      {"measurement": "Actual fungal growth inhibition rate (%)", "setting": "[4]", "result": 83, "unit": "%"},
      {"measurement": "Actual fungal growth inhibition rate (%)", "setting": "[5]; 0.01 ppm", "result": 0, "unit": "%"},
      {"measurement": "Actual fungal growth inhibition rate (%)", "setting": "[5]; 0.03 ppm", "result": 0, "unit": "%"},
      {"measurement": "Actual fungal growth inhibition rate (%)", "setting": "[5]; 0.13 ppm", "result": 4, "unit": "%"},
      {"measurement": "Actual fungal growth inhibition rate (%)", "setting": "[6]; 0.13 ppm", "result": 75, "unit": "%"},
      {"measurement": "Actual fungal growth inhibition rate (%)", "setting": "[6]; 0.50 ppm", "result": 82, "unit": "%"}
    ]},
    {"smiles": "Cn1cc(C(=O)Nc2ccc(F)cc2-c2ccc(Cl)c(Cl)c2)c(C(F)F)n1", "note": "[Bixafen, bixafen]", "values": [
      {"measurement": "Actual fungal growth inhibition rate (%)", "setting": "[3]; 0.03 ppm", "result": 14, "unit": "%"},
      {"measurement": "Actual fungal growth inhibition rate (%)", "setting": "[7]; 0.13 ppm", "result": 13, "unit": "%"},
      {"measurement": "Actual fungal growth inhibition rate (%)", "setting": "[7]; 0.50 ppm", "result": 19, "unit": "%"},
      {"measurement": "Actual fungal growth inhibition rate (%)", "setting": "[4]; used alone, 0.10 ppm", "result": "6% and 0%"},
      {"measurement": "Actual fungal growth inhibition rate (%)", "setting": "[5]; 0.10 ppm", "result": 0, "unit": "%"},
      {"measurement": "Actual fungal growth inhibition rate (%)", "setting": "[6]; 1.56 ppm", "result": 75, "unit": "%"}
    ]},
    {"smiles": "COc1ccnc(C(=O)N[C@H]2COC(=O)[C@H](Cc3ccccc3)[C@@H](OC(=O)C(C)C)[C@H](C)OC2=O)c1OCOC(=O)C(C)C", "note": "[Fenpicoxamid, fenpicoxamid]", "values": [
      {"measurement": "Actual growth inhibition rate", "setting": "[8]; 0.04 ppm", "result": 28, "unit": "%"},
      {"measurement": "Actual growth inhibition rate", "setting": "[8]; 0.2 ppm", "result": 59, "unit": "%"},
      {"measurement": "Actual growth inhibition rate", "setting": "[8]; 1.0 ppm", "result": 60, "unit": "%"},
      {"measurement": "Actual growth inhibition rate", "setting": "[8]; 5.0 ppm", "result": 100, "unit": "%"}
    ]},
    {"smiles": "O=C(NCCc1ncc(C(F)(F)F)cc1Cl)c1ccccc1C(F)(F)F", "note": "[Fluopyram, fluopyram, reference compound]", "values": [
      {"measurement": "inhibition at 0.13 ppm", "setting": "[1]; Colletotrichum gloeosporioides, used alone, 0.13 ppm, read-out: Actual fungal growth inhibition rate (%)", "result": 3, "unit": "%"},
      {"measurement": "inhibition at 0.5 ppm", "setting": "[1]; [9]", "result": 9, "unit": "%"},
      {"measurement": "inhibition at 0.03 ppm", "setting": "[7]; Fusarium fujikuroi, 0.03 ppm, read-out: Actual fungal growth inhibition rate (%)", "result": 6, "unit": "%"},
      {"measurement": "inhibition at 0.5 ppm", "setting": "[7]; Fusarium fujikuroi, 0.50 ppm, read-out: Actual fungal growth inhibition rate (%)", "result": 21, "unit": "%"}
    ]},
    {"smiles": "CO/N=C(/C1=NOCCO1)c1ccccc1Oc1ncnc(Oc2ccccc2Cl)c1F", "note": "[Fluoxastrobin, fluoxastrobin, reference compound]", "values": [
      {"measurement": "inhibition at 0.5 ppm", "setting": "[1]; [9]", "result": 48, "unit": "%"},
      {"measurement": "inhibition at 0.13 ppm", "setting": "[3]; Alternaria alternata, 0.13 ppm, read-out: Actual fungal growth inhibition rate (%)", "result": 48, "unit": "%"},
      {"measurement": "inhibition at 0.5 ppm", "setting": "[3]; Alternaria alternata, 0.50 ppm, read-out: Actual fungal growth inhibition rate (%)", "result": 43, "unit": "%"},
      {"measurement": "inhibition at 0.01 ppm", "setting": "[5]; 0.01 ppm, read-out: Actual fungal growth inhibition rate (%)", "result": 96, "unit": "%"},
      {"measurement": "inhibition at 0.13 ppm", "setting": "[6]; Pyrenophora graminea, 0.13 ppm, read-out: Actual fungal growth inhibition rate (%)", "result": 51, "unit": "%"},
      {"measurement": "inhibition at 0.5 ppm", "setting": "[6]; Pyrenophora graminea, 0.50 ppm, read-out: Actual fungal growth inhibition rate (%)", "result": 55, "unit": "%"},
      {"measurement": "Actual fungal growth inhibition rate (%)", "setting": "[6]; 0.13 ppm", "result": 46, "unit": "%"},
      {"measurement": "Actual fungal growth inhibition rate (%)", "setting": "[6]; 0.50 ppm", "result": 59, "unit": "%"}
    ]},
    {"smiles": "Cn1cc(C(=O)Nc2ccccc2-c2cc(F)c(F)c(F)c2)c(C(F)F)n1", "note": "[Fluxapyroxad, fluxapyroxad, reference compound]", "values": [
      {"measurement": "Actual fungal growth inhibition rate (%)", "setting": "[2]; 0.10 ppm", "result": 0, "unit": "%"},
      {"measurement": "Actual fungal growth inhibition rate (%)", "setting": "[2]; 1.56 ppm", "result": "0% and 9%"}
    ]},
    {"smiles": "CC(C)c1ccc(Cl)cc1CN(C(=O)c1c(C(F)F)nn(C)c1F)C1CC1", "note": "[Isoflucypram, isoflucypram]", "values": [
      {"measurement": "Actual growth inhibition rate", "setting": "[8]; 0.008 ppm", "result": 7, "unit": "%"},
      {"measurement": "Actual growth inhibition rate", "setting": "[8]; 0.04 ppm", "result": 3, "unit": "%"},
      {"measurement": "Actual growth inhibition rate", "setting": "[8]; 0.2 ppm", "result": 0, "unit": "%"},
      {"measurement": "Actual growth inhibition rate", "setting": "[8]; 1.0 ppm", "result": 48, "unit": "%"}
    ]},
    {"smiles": "CC(O)(Cn1cncn1)c1ccc(Oc2ccc(Cl)cc2)cc1C(F)(F)F", "note": "(centres unmarked) [Mefentrifluconazole, mefentrifluconazole, reference compound]", "values": [
      {"measurement": "Actual fungal growth inhibition rate (%)", "setting": "[1]; Glomerella cingulata, single chemical at 0.13 ppm", "result": 74, "unit": "%"},
      {"measurement": "Actual fungal growth inhibition rate (%)", "setting": "[1]; used alone, 0.01 ppm", "result": 17, "unit": "%"},
      {"measurement": "Actual fungal growth inhibition rate (%)", "setting": "[1]; used alone, 0.03 ppm", "result": 41, "unit": "%"},
      {"measurement": "Actual fungal growth inhibition rate (%)", "setting": "[1]; used alone, 0.50 ppm", "result": 77, "unit": "%"},
      {"measurement": "Actual fungal growth inhibition rate (%)", "setting": "[2]; 0.002 ppm", "result": 0, "unit": "%"},
      {"measurement": "Actual fungal growth inhibition rate (%)", "setting": "[2]; 0.01 ppm", "result": 0, "unit": "%"},
      {"measurement": "Actual fungal growth inhibition rate (%)", "setting": "[2]; 0.03 ppm", "result": 19, "unit": "%"},
      {"measurement": "Actual fungal growth inhibition rate (%)", "setting": "[3]; 0.50 ppm", "result": 62, "unit": "%"},
      {"measurement": "Actual fungal growth inhibition rate (%)", "setting": "[5]; 0.01 ppm", "result": 1, "unit": "%"}
    ]},
    {"smiles": "CC1(C)CCC(Cc2ccc(Cl)cc2)C1(O)Cn1cncn1", "note": "(centres unmarked) [Metconazole, metconazole, reference compound]", "values": [
      {"measurement": "inhibition at 0.001 ppm", "setting": "[1]; Colletotrichum gloeosporioides, used alone, 0.001 ppm, read-out: Actual fungal growth inhibition rate (%)", "result": 4, "unit": "%"},
      {"measurement": "inhibition at 0.003 ppm", "setting": "[1]; Colletotrichum gloeosporioides, used alone, 0.003 ppm, read-out: Actual fungal growth inhibition rate (%)", "result": 7, "unit": "%"},
      {"measurement": "inhibition at 0.01 ppm", "setting": "[1]; Colletotrichum gloeosporioides, used alone, 0.01 ppm, read-out: Actual fungal growth inhibition rate (%)", "result": 28, "unit": "%"}
    ]},
    {"smiles": "CC(C)CC(C)c1sccc1NC(=O)c1cn(C)nc1C(F)(F)F", "note": "(centres unmarked) [Penthiopyrad, penthiopyrad]", "values": [
      {"measurement": "inhibition at 1.25 ppm", "setting": "[4]; [10]", "result": 7, "unit": "%"},
      {"measurement": "inhibition at 5 ppm", "setting": "[4]; [10]", "result": 22, "unit": "%"},
      {"measurement": "inhibition at 20 ppm", "setting": "[4]; [10]", "result": 28, "unit": "%"}
    ]},
    {"smiles": "CCCN(CC)CC1COC2(CCC(C(C)(C)C)CC2)O1", "note": "(centres unmarked) [Spiroxamine, spiroxamine, reference compound]", "values": [
      {"measurement": "inhibition at 0.002 ppm", "setting": "[2]; Gaeumannomyces graminis, 0.002 ppm, read-out: Actual fungal growth inhibition rate (%)", "result": 0, "unit": "%"},
      {"measurement": "inhibition at 0.13 ppm", "setting": "[2]; Gaeumannomyces graminis, 0.13 ppm, read-out: Actual fungal growth inhibition rate (%)", "result": 0, "unit": "%"},
      {"measurement": "inhibition at 0.01 ppm", "setting": "[6]; Pyrenophora graminea, 0.01 ppm, read-out: Actual fungal growth inhibition rate (%)", "result": 0, "unit": "%"},
      {"measurement": "inhibition at 0.03 ppm", "setting": "[6]; Pyrenophora graminea, 0.03 ppm, read-out: Actual fungal growth inhibition rate (%)", "result": 0, "unit": "%"}
    ]}
  ]
}
